Structures are written as SMILES. Like-named read-outs stand apart in the source and are kept apart here.

Data set [1] in a line: Pharmacokinetic evaluation, SD rat test. Format: in vivo. As to conditions: SD rats; for AUC(0-t): read-out: Area under curve AUC0-t; for half-life: read-out: Half-life T1/2 (converted); for Cmax: read-out: Plasma concentration Cmax. How it is done: With SD rats as test animals, the plasma concentration of the compound of Example 26-1 was determined by LC/MS/MS at different time points after intragastric (i.g.)/intravenous (i.v.) administration to SD rats. The pharmacokinetic behavior of the compound of the present disclosure in SD rats was studied and its pharmacokinetic profile was evaluated.
Eight SD rats, of which half were male and half female, were evenly divided into 2 groups. The rats were provided by Zhejiang Vital River Laboratory Animal Technology Co., Ltd. The 2 groups were fasted overnight and then dosed intragastrically and intravenously, respectively.
An appropriate amount of the compound of Example 26-1 was weighed out and mixed with 5% EtOH+95% (a 15% solution of polyethylene glycol 15-hydroxystearate prepared in a 5% aqueous solution of glucose) to make a 0.2 mg/mL colorless clear solution (for the intragastric administration group) and a 0.2 mg/mL colorless clear solution (for the intravenous administration group).
The intragastric administration group: the dose was 2.0 mg/kg, and the volume was 10.0 mL/kg.
The intravenous administration group: the dose was 1.0 mg/kg, and the volume was 5.0 mL/kg.
The intragastric administration group: Blood (0.2 mL) was collected from the orbit into EDTA-K2 anticoagulation tubes before administration and 0.25 h, 0.5 h, 1.0 h, 2.0 h, 4.0 h, 6.0 h, 8.0 h, 11.0 h and 24.0 h after administration and centrifuged at 10,000 rpm for 1 min (4° C.). The plasma was separated within 1 h and stored at −20° C. before analysis. The process from blood collection to centrifugation was performed in an ice bath. Two hours after administration, feeding was resumed.
The intravenous administration group: Blood was collected before administration and 5 min, 15 min, 0.5 h, 1.0 h, 2.0 h, 4.0 h, 8.0 h, 11.0 h and 24 h after administration and processed as in the intragastric administration group.
The plasma concentration of the test compound was determined after administration of different concentrations of the test compound to SD rats: plasma samples (25 μL) were collected from SD rats at various time points after administration, and 50 μL of camptothecin (100 ng/mL) was added to each of the samples; proteins were precipitated with 200 μL of acetonitrile; the mixtures were vortexed for 5 min and centrifuged at 4000 rpm for 10 min. 1 μL of supernatant was collected for LC/MS/MS analysis.

The subject of the next data set is MCF7/ERα Y537S cells. The data set is described as follows: Inhibitory activity on proliferation of ERα mutant-expressing MCF7 cells. Format: cell-based. As to conditions: Homo sapiens, 144 h, 6 days incubation, CellTiter-Glo, read-out: IC50 (nM), inhibition of proliferation of ERα mutant-expressing MCF7 cells. The gist of the method: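 MCF7 cells stably expressing ERα Y537S (lentiviral) were seeded in 2% FBS medium and exposed for 6 days at 37 °C to 9 concentrations (4-fold dilution from 1000 nM, 0.5% DMSO control). Viability read by CellTiter-Glo luminescence; IC50 calculated from concentration–signal data.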
In general terms: ATP-based viability assays read luminescence as a measure of living cells.

[2] abbreviates: both sexes, rat, plasma, iv, i.v., 1.0 mg/kg.
The mark [3] stands for this setting: both sexes, rat, plasma, po, i.g., 2.0 mg/kg.

As to `CC(C)C[C@H]1CCc2cc(O)ccc2[C@H]1c1ccc(N2CCC(CN3CCN(c4ccc5c(c4)CN([C@H]4CCC(=O)NC4=O)C5=O)CC3)CC2)cc1` [Example 26-1, (S)-3-(5-(4-((1-(4-((1R,2R)-6-Hydroxy-2-isobutyl-1,2,3,4-tetrahydronaphthalen-1-yl)phenyl)piperidin-4-yl)methyl)piperazin-1-yl)-1-oxoisoindolin-2-yl)piperidine-2,6-dione], the “Clearance CL/F” value in data set [1] (i.v., 1.0 mg/kg) is listed as 6.4 mL/min/kg. In data set [1] (setting [2]), the AUC(0-t) stood at 2640 ng·h/mL, the half-life was 4.8 h and the Cmax was 4040 ng/mL. Moreover, the Vd/F in data set [1] (both sexes, rat, plasma, po, i.g., 2.0 mg/kg, read-out: Apparent distribution volume Vz/F) came to 38.5 L/kg. For the same compound, in data set [1] (setting [3]), the AUC(0-t) was 302 ng·h/mL, the half-life was 4.4 h and the Cmax is 32.9 ng/mL. Also, the CL/F in data set [1] (both sexes, rat, plasma, po, i.g., 2.0 mg/kg, read-out: Clearance CL/F) amounted to 102 mL/min/kg. The IC50 in the data set on MCF7/ERα Y537S cells was found to be 1.67 nM.

(Values after patent US20250099596A1, “TETRAHYDRONAPHTHALENE COMPOUND, AND PREPARATION METHOD THEREFOR AND USE THEREOF IN MEDICINE” (Jiangsu Hengrui Pharmaceuticals Co., Ltd., priority 2021, published 2025).)
